Laboratory results: patent US20250155433A1, “FLUORESCENT SENSORS FOR DETECTION OF SIDEROPHORES AND OTHER MOLECULES PRODUCED BY BACTERIAL PATHOGENS” (Kansas State University Research Foundation, priority 2021, published 2025)
pKd: −log10 of the molar value.

Columns and labels:
[1] = target: T1, HsaSCN (human siderocalin) (Homo sapiens, UniProt P80188, Q148C); experiment: Fluorescence quenching binding to purified HsaSCN-FM sensor; settings: ferric complexes and porphyrins; Cys residue Q128C, FM-labeled purified protein; NB = no binding; read-out: Affinity (KD) of sensor HsaSCN
T1 construct: adds a 6H-tag at either the N- or C-termini of the mature proteins; 6-His (N); made in house; host or cells: E. coli BL21 (pET28), IPTG-induced; purified on Talon Superflow
T1 sequence (P80188 21-198 Q148C): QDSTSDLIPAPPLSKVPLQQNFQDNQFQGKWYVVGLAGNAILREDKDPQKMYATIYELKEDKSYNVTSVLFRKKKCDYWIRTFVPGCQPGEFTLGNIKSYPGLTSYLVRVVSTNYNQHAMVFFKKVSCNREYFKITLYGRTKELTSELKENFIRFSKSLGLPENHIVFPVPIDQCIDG

CcrHutA = experiment: Fluorescence quenching binding to CcrHutA-FM sensor; design: species or system Caulobacter crescentus; settings: porphyrins; Cys residue A635C, FM-labeled; NB = no binding; read-out: Affinity (KD) of sensor CcrHutA
Protocol: (§1) Fluorescence modifications. For modifications with maleimide fluorophores, we inoculated E. coli strains OKN3, OKN13, OKN359 or OKN1359, harboring plasmids that encoded a Cys mutant LGP, from frozen stocks into LB, grew them overnight and sub-cultured at 1% into iron-deficient MOPS minimal media, with shaking (200 rpm) at 37° C. for 10-12 h, until late exponential phase. After collecting the cells by centrifugation at 7500×g for 15 min, and washing with 50 mM NaHPO4, pH 6.7, we labeled the Cys-mutant LGP with 5 μM FM in 50 mM NaHPO4, pH 6.7 for 15 min at 37° C. FM. We terminated the labeling reactions with 100 μM β-mercaptoethanol. […] After electrophoresis, we first visualized the fluorescence labeling on a Typhoon 8600 Biomolecular Scanner (GE/Amersham), and then stained the gels with Coomassie blue R (153).
(§2) Fluorescence spectroscopic binding determinations. We observed fluorophore-labeled cells in an SLM AMINCO 8100 fluorescence spectrometer, upgraded with an OLIS operating system and software (OLIS SpectralWorks, OLIS Inc., Bogart, GA), to control its shutters, polarizers and data collection. We also utilized an OLIS Clarity fluorescence spectrometer for fluorescence assays. […] We performed each measurement in triplicate and calculated the mean value of F/F0 at each ligand concentration. […]

EcoFepA = target: T2, EcoFepA (Escherichia coli, UniProt P05825, A720C); experiment: biochemical; format: binding
T2 construct: expressed in transfected cells; host or cells: E. coli OKN3/OKN13/OKN359/OKN1359 carrying pITS23 (fepA under its own promoter)
T2 sequence (P05825 23-746 A720C): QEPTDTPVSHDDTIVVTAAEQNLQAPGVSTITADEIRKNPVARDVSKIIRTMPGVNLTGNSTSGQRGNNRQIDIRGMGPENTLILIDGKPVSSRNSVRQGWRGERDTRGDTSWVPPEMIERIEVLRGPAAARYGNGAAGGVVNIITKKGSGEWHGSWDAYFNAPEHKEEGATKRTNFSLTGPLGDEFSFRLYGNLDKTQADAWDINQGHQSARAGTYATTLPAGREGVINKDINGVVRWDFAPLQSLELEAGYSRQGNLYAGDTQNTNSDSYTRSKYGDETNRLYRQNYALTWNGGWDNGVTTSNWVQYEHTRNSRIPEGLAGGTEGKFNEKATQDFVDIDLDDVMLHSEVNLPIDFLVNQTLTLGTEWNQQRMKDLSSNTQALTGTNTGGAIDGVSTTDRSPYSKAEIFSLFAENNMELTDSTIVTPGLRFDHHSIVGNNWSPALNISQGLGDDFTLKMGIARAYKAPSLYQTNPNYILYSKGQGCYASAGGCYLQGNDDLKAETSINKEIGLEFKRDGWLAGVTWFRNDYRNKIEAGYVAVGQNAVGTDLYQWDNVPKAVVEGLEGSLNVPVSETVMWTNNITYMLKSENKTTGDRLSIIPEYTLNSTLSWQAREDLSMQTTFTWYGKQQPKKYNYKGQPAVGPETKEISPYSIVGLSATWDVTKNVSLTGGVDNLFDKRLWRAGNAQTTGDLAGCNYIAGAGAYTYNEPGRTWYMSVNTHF
Protocol: Fluorescence modifications. For modifications with maleimide fluorophores, we inoculated E. coli strains OKN3, OKN13, OKN359 or OKN1359, harboring plasmids that encoded a Cys mutant LGP, from frozen stocks into LB, grew them overnight and sub-cultured at 1% into iron-deficient MOPS minimal media, with shaking (200 rpm) at 37° C. for 10-12 h, until late exponential phase. After collecting the cells by centrifugation at 7500×g for 15 min, and washing with 50 mM NaHPO4, pH 6.7, we labeled the Cys-mutant LGP with 5 μM FM in 50 mM NaHPO4, pH 6.7 for 15 min at 37° C. FM. We terminated the labeling reactions with 100 μM β-mercaptoethanol. After collecting the fluoresceinated cells by centrifugation at 7500×g for 15 min, and washing with 50 mM NaHPO4, pH 6.7, we re-suspended them in PBS plus 0.2% glucose. We either immediately used the labeled cells in spectroscopic experiments, or rested them on ice (up to 24 h), or added glycerol to 15% and stored them (indefinitely) as 1 mL aliquots at −70° C. In the latter case, after thawing the labeled cells we pelleted them by centrifugation in a microfuge, washed them once with and re-suspended them in PBS containing 0.2% glucose. Lastly, for evaluation of protein expression or the extent of FM-labeling we solubilized aliquots of the cell suspensions with sample buffer, and subjected them to SDS-PAGE. After electrophoresis, we first visualized the fluorescence labeling on a Typhoon 8600 Biomolecular Scanner (GE/Amersham), and then stained the gels with Coomassie blue R (153).
Fluorescence spectroscopic binding determinations. We observed fluorophore-labeled cells in an SLM AMINCO 8100 fluorescence spectrometer, upgraded with an OLIS operating system and software (OLIS SpectralWorks, OLIS Inc., Bogart, GA), to control its shutters, polarizers and data collection. We also utilized an OLIS Clarity fluorescence spectrometer for fluorescence assays. For binding determinations we deposited 2.5×10^7 labeled cells in a quartz cuvette (final volume, 2 mL) with stirring at 37° C., measured the initial fluorescence (F0), and then added increasing concentrations of an iron complex while monitoring the quenching of fluorescence emissions (F) at 520 nm. We performed each measurement in triplicate and calculated the mean value of F/F0 at each ligand concentration. We plotted 1−F/F0 vs [ligand] and analyzed the data by the 1-site binding model of Grafit 6.0.12 (Erithacus Ltd. West Sussex, UK), that fits data to a single site saturation curve, where the amount of ligand bound is plotted as a function of the amount free:
These plots yielded KD values for each of the receptor-ligand interactions, with associated standard errors.
Table 1 lists KD values from analysis of fluorescence quenching with ferric or apo (parenthetic values) siderophores or porphyrins. For each determination, we measured the extent of fluorescence quenching of an FLGP, when exposed to sequentially increasing concentrations of the listed metal complexes, as plotted in FIGS. 2-4. We performed each experiment 2 or 3 times. The tabulated KD values are from single, representative experiments, in which we collected each data point in triplicate, plotted F/F0 vs [ligand] for each quenching titration, and fitted the curves to a single site binding model using Grafit 6.012 (Erithacus Ltd, […], UK).

KpnFepA1658 = KpnFepA1658 (Klebsiella pneumoniae, UniProt A6T631, A407C); experiment: Fluorescence quenching binding to KpnFepA1658-FM sensor; settings: read-out: Affinity (KD) of sensor KpnFepA 1658, apo siderophore; apo (parenthetic value); A382C
Protocol: as §1, §2

KpnFepA4984 = KpnFepA4984 (Klebsiella pneumoniae, UniProt A0ACD7TVS5, A414C); experiment: Fluorescence quenching binding to KpnFepA4984-FM sensor; settings: read-out: Affinity (KD) of sensor KpnFepA 4984, apo siderophore; apo (parenthetic value); A390C
Protocol: as §1, §2

PaeFepA = target: T3, PaeFepA (Pseudomonas aeruginosa, UniProt Q05098, S296C); experiment: Fluorescence quenching binding to PaeFepA-FM sensor
T3 construct: expressed in transfected cells; host or cells: E. coli OKN3/OKN13/OKN359/OKN1359 carrying a pITS23 derivative
Protocol: as §1, §2

KpnIroN = KpnIroN (Klebsiella pneumoniae, UniProt A0ACD7U953, T234C); experiment: Fluorescence quenching binding to KpnIroN-FM sensor; settings: read-out: Affinity (KD) of sensor KpnIroN, apo siderophore; apo (parenthetic value); T210C
Protocol: as §1, §2

EcoFepB = target: T4, EcoFepB (Escherichia coli, UniProt P0AEL6, T297C); experiment: biochemical; format: binding
T4 construct: adds a 6H-tag at either the N- or C-termini of the mature proteins; 6-His (N); made in house; host or cells: E. coli BL21 (pET28), IPTG-induced; purified on Talon Superflow
T4 sequence (P0AEL6 27-318 T297C): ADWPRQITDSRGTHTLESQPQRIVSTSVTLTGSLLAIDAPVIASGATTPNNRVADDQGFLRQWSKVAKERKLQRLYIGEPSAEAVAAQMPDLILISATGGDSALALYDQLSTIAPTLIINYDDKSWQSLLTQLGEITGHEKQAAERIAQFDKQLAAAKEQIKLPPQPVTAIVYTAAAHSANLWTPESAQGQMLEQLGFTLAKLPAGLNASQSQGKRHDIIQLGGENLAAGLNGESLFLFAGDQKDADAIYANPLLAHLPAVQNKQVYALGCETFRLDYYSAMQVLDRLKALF
Source text: Cys Mutant protein expression and fluorescent labeling. The vector for LGP production, pITS23, carries wild-type EcofepA under control of its native, Fur-regulated promoter. For expression of each of the E. coli LGP (Fiu, FhuA, IutA, Cir, BtuB) we replaced EcofepA in pITS23 with the alternate LGP structural gene, with its own signal sequence, such that the iron-regulated EcofepA promoter-controlled biosynthesis. For LGP from of other species (KpnFepA, KpnIroN, KpnFyuA, AbaBauA, PaeFepA, PaeFpvA, CcrHutA), we replaced the sequence encoding mature EcoFepA with the sequence encoding the foreign mature LGP, downstream from the EcoFepA signal sequence, and regulated by the EcofepA promoter. […] We evaluated the expression and labeling of each of the cloned LGP by growing the appropriate E. coli host strain (OKN3, OKN359, OKN13 or OKN1359), harboring the plasmid constructs of interest, in iron-deficient MOPS medium to late log phase (A600 nm=2.5-3.5). We subsequently analyzed SDS-PAGE resolved samples of bacterial OM, or purified protein fractions, for fluorescence emissions at […] before staining with Coomassie blue R (FIGS. 7, 8, 9). In some cases, we used mouse monoclonal (α-EcoFepA) antibodies or rabbit polyclonal (α-FepB) antisera to determine the expression levels and stoichiometry of FM-labeling, which allowed quantification of expression. […]

| Compound | pKd [1] | pKd (CcrHutA) | pKd (EcoFepA; Affinity (KD) of sensor EcoFepA, apo siderophore, apo (parenthetic value), A698C) | pKd (EcoFepA; KD, EcoFepA / EcoFepA-FM) | pKd (KpnFepA1658) | pKd (KpnFepA4984) | pKd (PaeFepA) | pKd (KpnIroN) | pKd (EcoFepB) |
| --- | --- | --- | --- | --- | --- | --- | --- | --- | --- |
| hemin [Hn] | 6.47 | 6.82 | – | – | – | – | – | – | – |
| O=C(N[C@H]1COC(=O)[C@@H](NC(=O)c2cccc(O)c2O)COC(=O)[C@@H](NC(=O)c2cccc(O)c2O)COC1=O)c1cccc(O)c1O [Ent, enterobactin] | – | – | 7.52 | 7.37 | 7.15 | 5.48 | 5.77 | 7.40 | 5.22 |
